Laboratory results from US20200000871A1, “B-1A LYMPHOCYTE AND/OR MACROPHAGE TARGETING AND ACTIVATION TO TREAT MEDICAL CONDITIONS WITH INFLAMMATORY OR AUTOIMMUNE COMPONENTS” (THE BOARD OF TRUSTEES OF THE LELAND STANFORD JUNIOR …, priority 2015, published 2020).
Where no end group is shown, it is not given here.

Key:
[1] = tested on: peritoneal cells (B-1a and B-2 lymphocytes, LPMs, T lymphocytes, mast cells); assay: Binding and endocytosis of FITC-Tau fibrils by peritoneal cells after i.p. injection (confocal microscopy, flow cytometry); type: in vivo, C57BL/6 mice; conditions: 10 μg i.p., peritoneal cells stained for CD19 and F4/80
Description: C57B/6 female mice were injected with FITC-Tau 623-628, and peritoneal cells were isolated after 10 minutes, washed, stained with rat antimouse CD19 (PE), F4/80 (Alexa Fluor 647), and DAPI, washed, and plated on polylysine coated microscope slides. Cells were visualized using a Leica TCS SP8 white light laser confocal microscope.
Peptides were synthesized using solid phase techniques and commercially available Fmoc amino acids, resins, and reagents (PE Biosystems, Foster City Calif., and Bache, Torrance, Calif.) on an Applied Biosystems 433A peptide synthesizer as previously described. Wender et al. (2000) Proc. Natl. Acad. Sci. USA 97(24):13003-13008. […] The molecular weight of the peptides was confirmed using matrix assisted laser desorption mass spectrometry. To prevent excess amounts of fluorophore in the fibrils, Tau 623-628 was mixed at a ratio of 10:1 with an analog with FITC attached to the amino terminus of Tau 623-628 with an amino caproic acid linker. The resulting fibril mixture is referred to in the text as FITC-Tau.
Peritoneal cavity cells were obtained by flushing the peritoneal cavity with 10 ml of cold PBS containing 0.1% bovine serum albumin and 5 mM EDTA. […]

μMT mice with EAE = assay: EAE in B cell-deficient μMT mice, with or without adoptive transfer of B-1a lymphocytes; type: in vivo; conditions: 10 μg daily i.p., no cell transfer
Description: Induction of active EAE in mice by immunization with MOG and adjuvant. EAE was induced in female wild type C57Bl/6 mice or μMT and IL-10 deficient mice on C57B/6 background (Jackson Laboratories) by procedures previously described. Briefly, EAE was induced at 9 weeks of age by subcutaneous immunization in the flank with an emulsion containing 200 μg myelin oligodendrocyte glycoprotein35-55 (MOG35-55; […] (SEQ ID NO: 1065)) in saline and an equal volume of complete Freund's adjuvant containing […] mycobacterium tuberculosis H37RA (Disco Laboratories). All mice were given 400 ng of pertussis toxin (List Biological) intraperitoneal (i.p.) at 0 and 48 h post-immunization. The signs of neurological impairment were scored as follows: 0, no clinical disease; 1, tail weakness; 2, hindlimb weakness; 3, complete hindlimb paralysis; 4, hindlimb paralysis and some forelimb weakness; 5, moribund or dead. […] For intranasal inoculation, 10 μg of Amylin 28-33 in 10 μl PBS was gradually released into the nostrils of anesthetized mice. All animal protocols were approved by institutional IACUC.
B-1a lymphocytes were purified by cell sorting of peritoneal cells from wild type C57Bl/6 mice. […] Mice were examined daily for clinical signs of EAE and were scored on a five point scale described above.

[2] = tested on: B-1a lymphocytes and LPMs; assay: Bioluminescence imaging of trafficking of adoptively transferred luc+ B-1a lymphocytes and LPMs; type: in vivo, C57BL/6 albino mice
Description: B-1a lymphocytes and peritoneal MΦs were purified by cell sorting of peritoneal cells isolated from luciferase transgenic mice ((B6.FVB-Ptprca Tg(CAG-luc,-GFP)L2G85Chco Thy1a/J), which express the CAT-luc-eGFP, L2G85 transgene). In the initial experiment 2×10^5 and 1×10^5 B-1a lymphocytes were injected in the peritoneum of C57BL/6 female albino mice (B6(Cg)-Tyr^c-2J/J), followed by injection of 10 μg of Tau 623-628 to activate the lymphocytes, and 0.3 mg/g body weight of luciferin substrate (D luciferin firefly L-8220 Biosynth) to initiate the bioluminescence imaging. The location of the luciferase expressing cells was measured by imaging every 5 minutes for 75 minutes.
To confirm the diminution of luminescence was due to the trafficking of the luc^+ cells, and not the degradation of the luciferin, two C57BL/6 albino mice were injected with […] peritoneal MΦs, a third with 2×10^5 B-1a lymphocytes, and fourth mouse serving as a BLI control was injected with luciferin only. The mice were subsequently injected with 10 μg of Tau 623-628 and 0.3 mg/gram of luciferin. Bioluminescence was measured immediately after the injection of luciferin and 5 minutes later. After thirty minutes the mice were reinjected with luciferin and the resultant luminescence measured. […] Imaging data were analyzed and quantified with Living Image software 4.4 (Xenogen).
Amyloidogenic peptides induce exodus of B-1a lymphocytes and LPM from the peritoneal cavity. […] The location of the luciferase expressing cells was monitored by imaging the mice every 5 minutes for 75 minutes (FIG. 5, top left). The diffuse distribution of the luminescence, corresponding to the peritoneal cavity, seen at early times, was reduced in intensity over time, with focal regions of intensity appearing to localize in inguinal lymph nodes beginning at 35 minutes (FIG. 5, top left). […]
To better assign the basis of the reduction of luminescence to the migration of the luc^+ cells, a second experiment was performed with four recipient mice. […] Bioluminescence was measured immediately after the injection of luciferin and 5 minutes later. […]

[3] = tested on: B-1a lymphocytes and peritoneal MΦs (SPM, LPM); assay: Differential gene expression (microarray, qPCR) in sorted B-1a lymphocytes and peritoneal MΦs after i.p. injection; type: in vivo, C57BL/6 mice; conditions: 10 μg i.p., cells isolated 30-40 minutes after injection
Description: Total RNA was extracted from FACS purified B-1a lymphocytes and peritoneal MΦs pooled from 3-6 C57BL/6 female mice injected with 10 μg of LPS, Tau 623-628, Amylin 28-33, or PBS using Trizol reagent and the Qiagen RNeasy micro kit. First strand cDNA was synthesized with 30-50 ng of total RNA using Superscript III first strand synthesis supermix for qRT-PCR. QPCR assays were performed using the 7900HT Fast Real Time PCR System (Applied Biosystems), and the Taqman Gene Expression Arrays (Applied Biosystems) using commercially available primers (ABI). All assays were performed according to manufacturer's instructions. The comparative Ct method for relative quantification (ΔΔCt) was used to compare gene expression. […]
Gene expression changes associated with treatment with LPS, Amylin 28-33, and Tau 623-628, were quantified using a microarray (SurePrint G3 Mouse; Agilent Technologies). […] Analysis and quantitation of the data were done using GeneSpring and Ingenuity software.
To confirm and increase the understanding of how the fibrils are activating the peritoneal cells, differential gene induction in purified B-1a and LPMs was analyzed. […] B-1a lymphocytes (CD19^hiCD5^+CD23^−) and LPMs (CD11b^hi MΦs) from the four groups of three mice were sorted into Trizol, RNA extracted, and gene expression measured using a murine Agilent whole genome expression microchip. […]

PBMCs = assay: Type 1 IFN response and cytokine production in PBMCs of treated mice; conditions: mouse, in vivo
peritoneal cells = assay: Viability of peritoneal cells incubated in vitro with fibrils; type: cell-based, C57BL/6 mice; conditions: 1.0-0.125 μg/well, 30 or 120 minutes, PI staining
Description: FIG. 3. […] Peritoneal cells were isolated by lavage of C57BL/6 mice, aliquoted 500,000 cells per well of a 96 well round bottomed plate and treated with 1.0, 0.5, 0.25, 0.125 μg/well of Amylin 28-33 for 30 minutes or 120 minutes in DMEM with 10% FCS. At the end of the incubation the cells were spun, supernatant aspirated, and the cells were stained with rat anti-mouse CD11b (Pacific Blue), CD5 (PE), CD19 (APC), and incubated for 30 minutes on ice. The cells were washed once, aspirate transferred to FACS tubes, PI added, and analyzed by flow cytometry.

| Substance | binding and endocytosis of fibrils by B cells and MΦs (confocal microscopy) [1] | therapeutic effect on paralytic signs of EAE in μMT mice (μMT mice with EAE) | increase in luminescence over inguinal lymph nodes ([2]; 60 min compared with 5 min, luc+ LPMs, 10 μg i.p.) [fold] | time at which focal luminescence begins to localize in inguinal lymph nodes ([2]; luc+ B-1a lymphocytes, 10 μg i.p.) [min] | photons per second in the abdominal region ([2]; luc+ B-1a lymphocytes, over 75 minutes) | pattern of gene expression (microarray heatmap) [3] | type 1 IFN induction (PBMCs) | cell viability / cell death of peritoneal cells in vitro (peritoneal cells) |
| --- | --- | --- | --- | --- | --- | --- | --- | --- |
| VQIVYK [Tau 623-628, amyloidogenic hexapeptide of tau, forms amyloid fibrils] | bind and are endocytosed | neither Tau 623-628, nor Amylin 28-33 was therapeutic | ~10 | 35 | rapid, dose dependent, reduction of light emitted | induce a different pattern of gene expression than LPS | induced a type 1 interferon (IFN) response |  |
| SSTNVG [Amylin 28-33, SSTNVG] |  |  |  |  |  |  |  | does not affect cell viability |
